The results in this text go back to patent EP2960339A1, “Method and kit for the identification of glycosyl transferase substrates” (Technische Universität München, priority 2014, dated 2015).

Values joined by “and” are separate entries in the source; they are usually repeats but may differ in a detail not shown here. Equal entries are not always repeated. Where two headings read alike, the source gives them in different places.

Holding throughout (format): biochemical
Assay [1] has as its target T1, VvGT14a (Vitis vinifera, UniProt F6H0R6). Kind of assay: Substrate screening, radiochemical activity assay with UDP-[14C]glucose. The following applies: for conversion of putative substrate (in words): substrate screening, Figure 3; for relative specific activity: relative to conversion of geraniol (100 %), extractable radioactivity. The procedure:
(§1) In the initial screening, each reaction mixture (200 µL in total) contained Tris-HCl buffer (100 mM, pH 8, 10 mM 2-mercaptoethanol), 37 pmol UDP-[^14C]glucose (0.01 µCi, Biotrend, Köln, Germany), substrate (50 µL of a 1 mg/mL stock solution) and purified protein (0.5-0.8 µg/µL). The reaction mixture was incubated at 30 °C for 18.5 hours. The assays were stopped by adding 1 µL 24% trichloroacetic acid and extracted with 500 µL water-saturated 1-butanol. The organic phase was mixed with 2 mL Pro Flow P+ cocktail (Meridian Biotechnologies Ltd., Epsom, UK) and radioactivity was determined by liquid scintillation counting (LSC, Tri-Carb 2800TR, Perkin Elmer, Waltham MA, USA). Additionally, negative controls without substrate were performed.
(§2) After determining the optimal conditions for the best substrate of each gene, the substrate screening was repeated under these conditions.
(§3) The alleles of VvGT14a-c, 15a-c and 16 were isolated from V. vinifera cultivars and cloned in the expression vector pGEX-4T-1. The recombinant proteins were expressed with an N-terminal GST-tag, affinity purified and verified by SDS-PAGE and Western Blot using GST-specific antibody. Enzyme activity studies were performed with UDP-[^14C]glucose and various putative substrates (terpenols, flavonoids and different mono-alcohols) that are known to be glycosidically bound and present in grapes (Gunata et al., 1988).

Assay [2] addresses T2, VvGT16 (Vitis vinifera, UniProt F6HTJ4). Described as above. To be noted: for conversion of putative substrate (in words): substrate screening, Figure 3; for relative specific activity: relative to conversion of benzyl alcohol (100 %), extractable radioactivity; for efficiency of transformation of R- and S-citronellol (in words): radiochemical assays, Figure 12. The procedure:
as §1, §2, §3

Assay [3] addresses T3, VvGT15c (Vitis vinifera, UniProt F6GUW0). The procedure:
(§4) The measurements were performed under the following conditions. […] The assay of VvGT15a-c was performed at 30 °C using a Tris-HCl buffer (100 mM, 10 mM 2-mercaptoethanol, pH 7.5) and 10 min (VvGT15c) or 30 min (VvGT15a-b) of incubation for the best substrates. The amount of the purified enzyme and the incubation time were adapted depending on the counting sensibility. The reaction was stopped by adding 1 µL 24% trichloroacetic acid and glucosides were extracted with 100 µL ethyl acetate. Radioactivity was determined by LSC.
(§5) The KM- and vmax-values were calculated from Lineweaver-Burk plots, Hanes-Woolf plots and non-linear fitting of the experimental data.

The target in assay [4] is T4, VvGT15b (Vitis vinifera, UniProt F6GUW0). The method, then:
as §4, §5

The target in assay [5] is T5, VvGT15a (Vitis vinifera, UniProt F6GUW0). The procedure: as §4, §5
T5 sequence (F6GUW0 entry or part of it): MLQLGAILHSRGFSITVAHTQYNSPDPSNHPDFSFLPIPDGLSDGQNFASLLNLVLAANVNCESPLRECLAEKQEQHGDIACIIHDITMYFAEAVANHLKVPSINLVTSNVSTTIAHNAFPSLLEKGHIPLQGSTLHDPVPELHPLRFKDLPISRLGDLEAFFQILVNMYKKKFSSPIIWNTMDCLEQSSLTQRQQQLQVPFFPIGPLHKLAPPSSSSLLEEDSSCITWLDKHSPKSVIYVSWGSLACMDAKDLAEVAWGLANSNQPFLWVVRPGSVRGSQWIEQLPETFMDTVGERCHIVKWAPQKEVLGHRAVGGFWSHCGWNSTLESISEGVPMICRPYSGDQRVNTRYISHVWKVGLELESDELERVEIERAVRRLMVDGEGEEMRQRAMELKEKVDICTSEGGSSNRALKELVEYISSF
The target in assay [6] is T1, VvGT14a. The following applies: for Km: monoterpenols at constant UDP-glucose […], UDP-glucose at fixed geraniol 100 µM, Tris-HCl pH 8.5, 30 °C; for kcat: pH 8.5.
The target of assay [7] is T3, VvGT15c. Kind of assay: Substrate screening, radiochemical activity assay with UDP-[14C]glucose. The following applies: for conversion of putative substrate (in words): substrate screening, Figure 3. The method, then:
as §1, §2, §3

For assay [8], the target named is T5, VvGT15a. The assay is described as above. The following applies: for conversion of putative substrate (in words): substrate screening, Figure 3. The method, then: as §1, §2, §3
In assay [9] the target is T1, VvGT14a. Kind of assay: Activity based profiling using a physiologic aglycone library (radio-TLC, GC-MS). The following applies: Figure 7. The method, then:
For the preparation of aglycone extracts 50 g (fresh weight) grape skins or 4 g (fresh weight) inflorescences of Gewurztraminer Gm 11-18 were ground to a fine powder in liquid nitrogen. The isolation of glycosides was carried out as described above (see metabolite analysis). The methanolic fraction, which was obtained after SPE, was enzymatically hydrolysed. Therefore, the dried sample was dissolved in citric-acid buffer (0.1 M, pH 4), 50 mg AR 2000 (an enzyme preparation with glucosidase activity prepared from Aspergillus niger; DSM Food Specialties Beverage Ingredients, Delft, Netherlands) was added and incubated for 24 h with exclusion of light. The liberated aglycones were extracted by 20 mL methyl-tert-butyl ether and the organic phase was reduced to 1000µL using a gentle stream of nitrogen.
Aliquots of this aglycone extract were incubated with UDP-glucose and various VvGT-enzymes. Optimum conditions at 30 °C for 24 hours were applied. Each solution contained 100 µL purified enzyme, 100-150 µL Tris-HCl buffer (100 mM, pH7.5 or 8.5, 10 mM 2-mercaptoethanol), 37 pmol UDP-[^14C]glucose (0.01 µCi) and 50-100 µL extract (dissolved in methyl-tert-butylether). The buffer was mixed with the extract and the organic solvent was gently vaporized with nitrogen. The missing volume was adjusted with buffer before the enzyme was added. The reaction was stopped by adding 1 µL 24% trichloroacetic acid and extracted with 500 µL ethyl acetate. After termination of the reaction free aglycones, which were not converted by VvGT14 and VvGT15, were measured via SPME-(Solid Phase Microextraction)-GC-MS. These residual, free aglycones were completely removed by extraction with dichloromethane. Enzymatically formed glucosides were extracted by ethyl acetate, which was removed under nitrogen. The residue was dissolved in methanol and analyzed by LC-MS to detect the generated monoterpenol glucosides. Enzymatic hydrolysis of the glucosides was performed using AR 2000 and 2 mL citric-acid-buffer. After hydrolysis, a 100 µL aliquot was used to detect volatile aglycones via SPME-GC-MS. The remaining solution was extracted with methyl-tert-butyl ether and reduced under nitrogen to approximately 200 µL. One µL were measured by GC-MS via liquid injection.
Assays containing UDP-[^14C]glucose and aglycone libraries or substrates were performed as described above and subsequently extracted with 500 µL ethyl acetate. The organic solvent was vaporized and the pellet was re-suspended in 10 µL methanol and was applied on Silica Gel 60 F254 plates (Merck, Darmstadt, Germany). The dried plates were developed in a solvent system chloroform:acetic acid:water (50/45/5, v:v:v). Plates were dried and analyzed by digital autoradiograph (digital autoradiograph, EG&G Berthold, Wildbad, Germany).
An aglycone library of the two tissues was obtained by enzymatic hydrolysis of the glycosides followed by liquid-liquid extraction of the released alcohols and acids. […] The formed glycosides were separated by thin layer chromatography (TLC) and visualized by radiodetection whereas identification could be achieved by LC-MS and NMR analysis and, after hydrolysis, by GC-MS and LC-MS (Figure 6).

The target in assay [10] is T2, VvGT16. Kind of assay: Kinetics (KM, kcat) with UDP-[14C]glucose, liquid scintillation counting. The following applies: monoterpenes at constant UDP-glucose 512.5 µM; UDP-glucose at fixed geraniol 1.25 mM; Tris-HCl pH 8.5, 30 °C.
Assay [11] deals with T4, VvGT15b. Kind of assay: Substrate screening, radiochemical activity assay with UDP-[14C]glucose. To be noted: for conversion of putative substrate (in words): substrate screening, Figure 3. The procedure:
as §1, §2, §3

The mark [12] stands for this setting: substrates at fixed UDP-glucose 833 µM, UDP-glucose at constant geraniol 1.25 mM, Tris-HCl pH 7.5, 30 °C.
Setting [13] is: relative to conversion of geraniol (100 %), extractable radioactivity.
[14] abbreviates: citronellol enantiomers, Figure 12, highest level of extractable radioactivity = 100 %.

T2 sequence (F6HTJ4 entry or part of it): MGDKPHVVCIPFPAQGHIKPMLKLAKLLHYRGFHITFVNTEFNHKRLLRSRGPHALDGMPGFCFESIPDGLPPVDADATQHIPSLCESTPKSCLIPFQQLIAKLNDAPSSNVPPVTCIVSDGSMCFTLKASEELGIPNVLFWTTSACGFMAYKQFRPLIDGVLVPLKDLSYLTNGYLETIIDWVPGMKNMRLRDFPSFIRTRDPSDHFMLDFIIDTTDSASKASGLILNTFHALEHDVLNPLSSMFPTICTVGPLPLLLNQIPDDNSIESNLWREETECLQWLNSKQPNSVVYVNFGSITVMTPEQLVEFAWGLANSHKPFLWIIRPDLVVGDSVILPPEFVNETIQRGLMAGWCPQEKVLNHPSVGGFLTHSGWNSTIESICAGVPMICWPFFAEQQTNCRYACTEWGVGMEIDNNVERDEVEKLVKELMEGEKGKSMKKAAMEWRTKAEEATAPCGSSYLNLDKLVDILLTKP
T3 sequence (F6GUW0 entry or part of it): as the sequence (F6GUW0 entry or part of it) above
T4 sequence (F6GUW0 entry or part of it): as above
T1 sequence (F6H0R6 entry or part of it): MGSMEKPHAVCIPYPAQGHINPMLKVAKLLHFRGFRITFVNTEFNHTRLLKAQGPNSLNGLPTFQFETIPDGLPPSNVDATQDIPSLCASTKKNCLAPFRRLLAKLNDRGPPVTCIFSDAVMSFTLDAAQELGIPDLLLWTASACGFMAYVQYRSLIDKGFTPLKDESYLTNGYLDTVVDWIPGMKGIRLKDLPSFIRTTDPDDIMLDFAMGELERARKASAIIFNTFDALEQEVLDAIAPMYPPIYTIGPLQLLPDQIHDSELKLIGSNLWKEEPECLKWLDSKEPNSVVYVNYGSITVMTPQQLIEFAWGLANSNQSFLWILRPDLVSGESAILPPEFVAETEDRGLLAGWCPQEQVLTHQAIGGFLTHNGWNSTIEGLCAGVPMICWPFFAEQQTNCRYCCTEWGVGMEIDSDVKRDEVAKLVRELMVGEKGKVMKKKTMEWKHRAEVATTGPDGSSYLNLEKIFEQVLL

`CC(C)=CCO` [3-methyl-2-butenol]: the “conversion of putative substrate (in words)” value (“conversion” below) in assay [1] is reported as “catalytic activity”; in [2] it was “transformed”.
Regarding `C=C(C)CCO` [3-methyl-3-butenol], the “conversion” value in [1] was “catalytic activity”.
Broadly, the kcat is the number of substrate molecules converted per active site and unit of time at saturation. Broadly, the Km is the concentration of substrate that gives half-maximal velocity. `C=CC(C)(O)CCC=C(C)CO` (stereo not shown) [8-hydroxylinalool]: the kcat in assay [3] (pH 7.5) came out at 0.004 s⁻¹; in assay [4] (setting [12]), 0.003 s⁻¹; in assay [5] (setting [12]), 0.003 s⁻¹; in assay [6], 0.002 s⁻¹. Besides, the Km turned out to be 17 ± 0.2 µM in assay [3] (setting [12]), 33 ± 1.8 µM in assay [4] (setting [12]), 32 ± 1.4 µM in [5] (setting [12]) and 48 ± 2 µM in assay [6]. In addition, the results for the “conversion” value in assay [7], in assay [1] and in assay [8] were “able to use”, “catalytic activity” and “able to use”, respectively.
In the case of `CC(C)=CCC/C(C)=C/CO` [Geraniol, (E)-3,7-dimethyl-2,6-octadien-1-ol], the “Michaelis constant, fold greater than the KM values for nerol and S-citronellol” value in assay [3], in assay [4] and in assay [5] was “about 2 fold” throughout. The kcat in [3] (pH 7.5) is 0.17 s⁻¹; in assay [4] (pH 7.5), 0.1 s⁻¹ and 0.10 s⁻¹; in [5] (pH 7.5), 0.12 s⁻¹; in assay [10], 0.015 s⁻¹; in [6], 0.02 s⁻¹. Moreover, the Michaelis constant (Km) is 43 µM in assay [3] (setting [12]); 81 µM in assay [4] (setting [12]); 63 µM in assay [5] (setting [12]); 355 ± 14 µM in assay [10]; 9 ± 1.2 µM in assay [6]. Moreover, the “aglycone liberated by enzymatic hydrolysis of the glucosides formed from the grape skin aglycone library (in words)” value in assay [9] is listed as “substantial amount”. The relative specific activity in [7] (setting [13]) is 100%; in assay [1], 100%; in assay [11] (setting [13]), 100%; in assay [8] (setting [13]), 100%; in assay [2], greater than 80%. Also, the “conversion” value is given as “glucosylated primarily” in assay [7], “preferred” in assay [1], “glucosylated primarily” in [11] and “glucosylated primarily” in assay [8].
For the molecule `CC(C)=CCC[C@@H](C)CCO` [R-citronellol, (R)-(+)-13-citronellol], the “efficiency of transformation of R- and S-citronellol (in words)” value in assay [2] was “same efficiency”.
For the molecule `CC(C)=CCC[C@H](C)CCO` [S-citronellol], the Km in assay [3] (setting [12]) came to 20 ± 1.6 µM; in assay [4] (setting [12]) it was 55 ± 1.3 µM; in assay [5] (setting [12]) it was 29 ± 3 µM. Moreover, the kcat in assay [3] (setting [12]) came out at 0.03 s⁻¹; in assay [4] (setting [12]) it was 0.03 s⁻¹; in assay [5] (pH 7.5), 0.02 s⁻¹. Also, the relative specific activity in assay [11] (setting [14]) and in assay [8] (setting [14]) was 100% each time. Further, in [2], the “efficiency of transformation of R- and S-citronellol (in words)” value is on record as “same efficiency”.
In the case of `OCc1ccccc1` [benzyl alcohol], the “aglycone liberated by enzymatic hydrolysis of the glucosides formed from the grape skin aglycone library (in words)” value in [9] was “remarkable quantities”. The “conversion” value in [1] is “catalytic activity”. The relative specific activity in assay [2] was > 80% and 100%.
As for `CC/C=C\CCO` [cis 3-hexenol], the “conversion” value is on record as “catalytic activity” in [1] and “transformed” in [2].
Turning to `Oc1cc(O)c2cc(O)c(-c3ccc(O)c(O)c3)[o+]c2c1` [cyanidin], the relative specific activity in [1] was less than 1%.
For the molecule `C=CCc1ccc(O)c(OC)c1` [eugenol], the “conversion” value in assay [1] is recorded as “catalytic activity”.
For `CC(C)=CCCC(C)=CCCC(C)=CCO` [farnesol], the results for the “conversion” value in [1] and in assay [8] were “catalytic activity” and “low activity”, respectively.
With `CCCCCCO` [hexanol], the “conversion” value in assay [7], in assay [11] and in [8] was “glucosylated primarily” each time. The relative specific activity in assay [1] and in assay [2] was greater than 80% each time.
Turning to `O=c1c(O)c(-c2ccc(O)cc2)oc2cc(O)cc(O)c12` [kaempferol], the relative specific activity in assay [1] is less than 1%.
Consider `N#CC(O)c1ccccc1` (stereo not shown) [mandelonitrile], for which the “conversion” value in assay [1] was “catalytic activity”.
On to `CCCCCCCCO` [octanol], for which the “conversion” value in [7], in assay [11] and in assay [8] was “glucosylated primarily” each time. Also, the relative specific activity in assay [1] was greater than 80%.
For `Oc1ccc(-c2[o+]c3cc(O)cc(O)c3cc2O)cc1` [pelargonodin], in assay [1], the relative specific activity is less than 1%.
For the molecule `O=c1c(O)c(-c2ccc(O)c(O)c2)oc2cc(O)cc(O)c12` [quercetin], the relative specific activity in assay [1] is on record as less than 1%.
On to `CCC/C=C/CO` [trans 2-hexenol], for which the “conversion” value in assay [7] is “able to use”; in assay [1], “catalytic activity”; in assay [8], “able to use”; in assay [2], “transformed”.
